Experimental data reported in PubChem BioAssay AID1963448 (Molecular Pharmacology Branch, DTP, NCI, 2024).

Test system: 616215-338-R-J1-PDC complex spheroid growth, % test/control
Test: Anticancer human tumor 616215-338-R-J1-PDC patient-derived colon adenocarcinoma cell line growth inhibition [Asc]
Conditions: for IC50: curve of first compound; for viability, T/C: stronger effect = lower value
Method in brief: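 Spheroid model: tumor line + HUVEC + hMSC. Single agents and combinations; top conc. at/near clinical Cmax (10 microM if undetermined), half-log dilutions. DMSO stocks at 800-fold test concentration.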

[1] = second compound 0.00316 µM, first compound 0.0316 µM
[2] = second compound 0.00316 µM, first compound 0.1 µM
[3] = second compound 0.00316 µM, first compound 0.316 µM
[4] = second compound 0.00316 µM, first compound 1 µM
[5] = second compound 0.00316 µM, first compound 3.16 µM
[6] = second compound 0.00316 µM, first compound 10 µM
[7] = second compound 0.01 µM, first compound 0.0316 µM
[8] = second compound 0.01 µM, first compound 0.1 µM
[9] = second compound 0.01 µM, first compound 0.316 µM
[10] = second compound 0.01 µM, first compound 1 µM
[11] = second compound 0.01 µM, first compound 3.16 µM
[12] = second compound 0.01 µM, first compound 10 µM
[13] = second compound 0.0316 µM, first compound 0.0316 µM
[14] = second compound 0.0316 µM, first compound 0.1 µM
[15] = second compound 0.0316 µM, first compound 0.316 µM
[16] = second compound 0.0316 µM, first compound 1 µM
[17] = second compound 0.0316 µM, first compound 3.16 µM
[18] = second compound 0.0316 µM, first compound 10 µM
[19] = second compound 0.1 µM, first compound 0.0316 µM
[20] = second compound 0.1 µM, first compound 0.1 µM
[21] = second compound 0.1 µM, first compound 0.316 µM
[22] = second compound 0.1 µM, first compound 1 µM
[23] = second compound 0.1 µM, first compound 3.16 µM
[24] = second compound 0.1 µM, first compound 10 µM
[25] = second compound 0.316 µM, first compound 0.0316 µM
[26] = second compound 0.316 µM, first compound 0.1 µM
[27] = second compound 0.316 µM, first compound 0.316 µM
[28] = second compound 0.316 µM, first compound 1 µM
[29] = second compound 0.316 µM, first compound 3.16 µM
[30] = second compound 0.316 µM, first compound 10 µM
[31] = second compound 1 µM, first compound 0.0316 µM
[32] = second compound 1 µM, first compound 0.1 µM
[33] = second compound 1 µM, first compound 0.316 µM
[34] = second compound 1 µM, first compound 1 µM
[35] = second compound 1 µM, first compound 3.16 µM
[36] = second compound 1 µM, first compound 10 µM
[37] = second compound 0.00316 µM, first compound 0.00949 µM
[38] = second compound 0.00316 µM, first compound 0.03 µM
[39] = second compound 0.00316 µM, first compound 0.0949 µM
[40] = second compound 0.00316 µM, first compound 0.3 µM
[41] = second compound 0.00316 µM, first compound 0.949 µM
[42] = second compound 0.00316 µM, first compound 3 µM
[43] = second compound 0.01 µM, first compound 0.00949 µM
[44] = second compound 0.01 µM, first compound 0.03 µM
[45] = second compound 0.01 µM, first compound 0.0949 µM
[46] = second compound 0.01 µM, first compound 0.3 µM
[47] = second compound 0.01 µM, first compound 0.949 µM
[48] = second compound 0.01 µM, first compound 3 µM
[49] = second compound 0.0316 µM, first compound 0.00949 µM
[50] = second compound 0.0316 µM, first compound 0.03 µM
[51] = second compound 0.0316 µM, first compound 0.0949 µM
[52] = second compound 0.0316 µM, first compound 0.3 µM
[53] = second compound 0.0316 µM, first compound 0.949 µM
[54] = second compound 0.0316 µM, first compound 3 µM
[55] = second compound 0.1 µM, first compound 0.00949 µM
[56] = second compound 0.1 µM, first compound 0.03 µM
[57] = second compound 0.1 µM, first compound 0.0949 µM
[58] = second compound 0.1 µM, first compound 0.3 µM
[59] = second compound 0.1 µM, first compound 0.949 µM
[60] = second compound 0.1 µM, first compound 3 µM
[61] = second compound 0.316 µM, first compound 0.00949 µM
[62] = second compound 0.316 µM, first compound 0.03 µM
[63] = second compound 0.316 µM, first compound 0.0949 µM
[64] = second compound 0.316 µM, first compound 0.3 µM
[65] = second compound 0.316 µM, first compound 0.949 µM
[66] = second compound 0.316 µM, first compound 3 µM
[67] = second compound 1 µM, first compound 0.00949 µM
[68] = second compound 1 µM, first compound 0.03 µM
[69] = second compound 1 µM, first compound 0.0949 µM
[70] = second compound 1 µM, first compound 0.3 µM
[71] = second compound 1 µM, first compound 0.949 µM
[72] = second compound 1 µM, first compound 3 µM
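Also: spheroids exposed to agents for seven days before readout.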
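For viability, T/C in this document: 100% = DMSO vehicle control viability.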

SMILES: C#Cc1c(F)ccc2cc(O)cc(-c3ncc4c(N5CC6CCC(C5)N6)nc(OCC56CCCN5CC(F)C6)nc4c3F)c12 (stereo not drawn) + CNC(C)C(=O)NC1CN(S(=O)(=O)c2cccc(S(=O)(=O)N3CCC4CCC(C(=O)NC(c5ccccc5)c5ccccc5)N4C(=O)C(NC(=O)C(C)NC)C3)c2)CCC2CCC(C(=O)NC(c3ccccc3)c3ccccc3)N2C1=O
- IC50 (second compound 0.00316 µM): 2280 nM
- IC50 (second compound 0.01 µM): 2490 nM
- IC50 (second compound 0.0316 µM): 3760 nM
- IC50 (second compound 0.1 µM): 2330 nM
- IC50 (second compound 0.316 µM): 2720 nM
- IC50 (second compound 1 µM): 2100 nM
- viability, T/C [1]: 94.8%
- viability, T/C [2]: 104%
- viability, T/C [3]: 95.6%
- viability, T/C [4]: 100%
- viability, T/C [5]: 30.6%
- viability, T/C [6]: 6.11%
- viability, T/C [7]: 101%
- viability, T/C [8]: 99.3%
- viability, T/C [9]: 104%
- viability, T/C [10]: 97.6%
- viability, T/C [11]: 37.4%
- viability, T/C [12]: 5.11%
- viability, T/C [13]: 100%
- viability, T/C [14]: 95.7%
- viability, T/C [15]: 99.9%
- viability, T/C [16]: 104%
- viability, T/C [17]: 57.1%
- viability, T/C [18]: 9.6%
- viability, T/C [19]: 90.9%
- viability, T/C [20]: 102%
- viability, T/C [21]: 105%
- viability, T/C [22]: 89.4%
- viability, T/C [23]: 35.7%
- viability, T/C [24]: 4.68%
- viability, T/C [25]: 98.7%
- viability, T/C [26]: 102%
- viability, T/C [27]: 109%
- viability, T/C [28]: 89.9%
- viability, T/C [29]: 44.2%
- viability, T/C [30]: 6.83%
- viability, T/C [31]: 106%
- viability, T/C [32]: 86%
- viability, T/C [33]: 102%
- viability, T/C [34]: 104%
- viability, T/C [35]: 22.4%
- viability, T/C [36]: 3.39%

SMILES: C=C(F)C(=O)N1CCN(c2nc(OCC3CCCN3C)nc3c2CCN(c2cccc4cccc(Cl)c24)C3)CC1CC#N (stereo not drawn) + CNC(C)C(=O)NC1CN(S(=O)(=O)c2cccc(S(=O)(=O)N3CCC4CCC(C(=O)NC(c5ccccc5)c5ccccc5)N4C(=O)C(NC(=O)C(C)NC)C3)c2)CCC2CCC(C(=O)NC(c3ccccc3)c3ccccc3)N2C1=O
- IC50 (second compound 0.00316 µM): 175 nM
- IC50 (second compound 0.01 µM): 162 nM
- IC50 (second compound 0.0316 µM): 155 nM
- IC50 (second compound 0.1 µM): 52.6 nM
- IC50 (second compound 0.316 µM): 243 nM
- IC50 (second compound 1 µM): 131 nM
- viability, T/C [1]: 61%
- viability, T/C [2]: 53.5%
- viability, T/C [3]: 43.7%
- viability, T/C [4]: 23.7%
- viability, T/C [5]: 1.09%
- viability, T/C [6]: 0.18%
- viability, T/C [7]: 64.8%
- viability, T/C [8]: 53.1%
- viability, T/C [9]: 41.4%
- viability, T/C [10]: 26.3%
- viability, T/C [11]: 0.82%
- viability, T/C [12]: 2.38%
- viability, T/C [13]: 65.3%
- viability, T/C [14]: 43.8%
- viability, T/C [15]: 47.5%
- viability, T/C [16]: 21.2%
- viability, T/C [17]: 0.88%
- viability, T/C [18]: 0.16%
- viability, T/C [19]: 54.9%
- viability, T/C [20]: 43.8%
- viability, T/C [21]: 39.4%
- viability, T/C [22]: 23.5%
- viability, T/C [23]: 0.85%
- viability, T/C [24]: 1.36%
- viability, T/C [25]: 56.5%
- viability, T/C [26]: 58.4%
- viability, T/C [27]: 47.7%
- viability, T/C [28]: 13.9%
- viability, T/C [29]: 1.16%
- viability, T/C [30]: 0.18%
- viability, T/C [31]: 60%
- viability, T/C [32]: 52%
- viability, T/C [33]: 38.8%
- viability, T/C [34]: 15.7%
- viability, T/C [35]: 1.42%
- viability, T/C [36]: 0.21%

SMILES: CCN1C(C(=O)NC23CCC(C(=O)O)(CC2)CC3)C(c2cccc(Cl)c2F)C2(C(=O)Nc3cc(Cl)ccc32)C12CCCCC2 (stereo not drawn) + CNC(C)C(=O)NC1CN(S(=O)(=O)c2cccc(S(=O)(=O)N3CCC4CCC(C(=O)NC(c5ccccc5)c5ccccc5)N4C(=O)C(NC(=O)C(C)NC)C3)c2)CCC2CCC(C(=O)NC(c3ccccc3)c3ccccc3)N2C1=O
- IC50 (second compound 0.00316 µM): 87.4 nM
- IC50 (second compound 0.01 µM): 86.5 nM
- IC50 (second compound 0.0316 µM): 175 nM
- IC50 (second compound 0.1 µM): 93.1 nM
- IC50 (second compound 0.316 µM): 80.6 nM
- IC50 (second compound 1 µM): 88.2 nM
- viability, T/C [37]: 109%
- viability, T/C [38]: 108%
- viability, T/C [39]: 41.7%
- viability, T/C [40]: 45.3%
- viability, T/C [41]: 49.6%
- viability, T/C [42]: 45.4%
- viability, T/C [43]: 108%
- viability, T/C [44]: 104%
- viability, T/C [45]: 41.6%
- viability, T/C [46]: 44%
- viability, T/C [47]: 54.3%
- viability, T/C [48]: 41.1%
- viability, T/C [49]: 99.2%
- viability, T/C [50]: 101%
- viability, T/C [51]: 53.5%
- viability, T/C [52]: 50%
- viability, T/C [53]: 48.7%
- viability, T/C [54]: 42%
- viability, T/C [55]: 111%
- viability, T/C [56]: 78.2%
- viability, T/C [57]: 51.1%
- viability, T/C [58]: 36.3%
- viability, T/C [59]: 52.8%
- viability, T/C [60]: 41.1%
- viability, T/C [61]: 97.5%
- viability, T/C [62]: 89.5%
- viability, T/C [63]: 43.4%
- viability, T/C [64]: 41.2%
- viability, T/C [65]: 44.9%
- viability, T/C [66]: 44.1%
- viability, T/C [67]: 89.8%
- viability, T/C [68]: 83.4%
- viability, T/C [69]: 47.5%
- viability, T/C [70]: 43.5%
- viability, T/C [71]: 60.1%
- viability, T/C [72]: 39.5%

SMILES: Cc1nc(N2CCC3(CC2)COC(C)C3N)c(CO)nc1Sc1ccnc(N)c1Cl (stereo not drawn) + CNC(C)C(=O)NC1CN(S(=O)(=O)c2cccc(S(=O)(=O)N3CCC4CCC(C(=O)NC(c5ccccc5)c5ccccc5)N4C(=O)C(NC(=O)C(C)NC)C3)c2)CCC2CCC(C(=O)NC(c3ccccc3)c3ccccc3)N2C1=O
- IC50 (second compound 0.00316 µM): 969 nM
- IC50 (second compound 0.01 µM): 534 nM
- IC50 (second compound 0.0316 µM): 1080 nM
- IC50 (second compound 0.1 µM): 784 nM
- IC50 (second compound 0.316 µM): 530 nM
- IC50 (second compound 1 µM): 1770 nM
- viability, T/C [37]: 96.8%
- viability, T/C [38]: 104%
- viability, T/C [39]: 89.7%
- viability, T/C [40]: 99.3%
- viability, T/C [41]: 50.8%
- viability, T/C [42]: 8.66%
- viability, T/C [43]: 87.2%
- viability, T/C [44]: 94.1%
- viability, T/C [45]: 99.7%
- viability, T/C [46]: 85.3%
- viability, T/C [47]: 14.7%
- viability, T/C [48]: 7.72%
- viability, T/C [49]: 99.4%
- viability, T/C [50]: 68.4%
- viability, T/C [51]: 104%
- viability, T/C [52]: 98.4%
- viability, T/C [53]: 54.9%
- viability, T/C [54]: 11.4%
- viability, T/C [55]: 103%
- viability, T/C [56]: 85.1%
- viability, T/C [57]: 94%
- viability, T/C [58]: 115%
- viability, T/C [59]: 40.3%
- viability, T/C [60]: 9.21%
- viability, T/C [61]: 92.2%
- viability, T/C [62]: 78.3%
- viability, T/C [63]: 98.2%
- viability, T/C [64]: 68.3%
- viability, T/C [65]: 29.9%
- viability, T/C [66]: 11.6%
- viability, T/C [67]: 83.1%
- viability, T/C [68]: 88.3%
- viability, T/C [69]: 103%
- viability, T/C [70]: 92.5%
- viability, T/C [71]: 101%
- viability, T/C [72]: 12.8%
